One data set concerns canine OA model. The experiment in a line: Canine osteoarthritis model (medial meniscal release). The data set is classed as in vivo, dog. The conditions noted are these: for histological (OARSI) scores of joint sections, matrix catabolism: intra-articular injections at post-operative weeks 4 and 11. The method, then:
Single-cell sequencing using 10× Genomics. Single cell samples were prepared using Next GEM Single Cell 5′ v2 (dual index) and Chip Kit (10× Genomics) according to the manufacturer's protocol. Briefly samples were FACS sorted using DAPI to select live cells followed by resuspension in 0.04% BSA-PBS. Nearly 1200 cells/μl were added to each well of the chip with a target cell recovery estimate of 10000 cells. Thereafter Gel bead-in Emulsions (GEMs) were generated using GemCode Single-Cell Instrument. GEMs were reverse transcribed, droplets were broken and single stranded cDNA was isolated. cDNAs were cleaned up with DynaBeads and amplified. Finally, cDNAs were ligated with adapters, post-ligation products were amplified, cleaned-up with SPRIselect and purified libraries were sequenced on Novaseq.
10× Sequencing data analysis. Raw sequencing reads were processed using Partek Flow Analysis Software (build version 10.0.21.0210). Briefly, raw reads were checked for their quality, trimmed and reads with an average base quality score per position>30 were considered for alignment. Trimmed reads were aligned to the dog genome version canFam3-Ensembl_v102 using STAR-2.6.1d with default parameters. Reads with alignment percentage >75% were deduplicated based on their unique molecular identifiers (UMIs). Reads mapping to the same chromosomal location with duplicate UMIs were removed. Thereafter ‘Knee’ plot was constructed using the cumulative fraction of reads/UMIs for all barcodes. Barcodes […] the cut-off defined by the location of the knee were assigned as true cell barcodes and quantified. Further noise filtration was done by removing cells having >5% mitochondrial counts and total read counts >24,000. Genes not expressed in any cell were also removed as an additional clean-up step. Cleaned-up reads were normalized using counts per million (CPM) method followed by log-transformation generating count matrices for each sample. Samples were batch-corrected on the basis of expressed genes and mitochondrial reads percent. Count matrices were used to visualize and explore the samples in further details by generating tSNE plots, a non-linear dimensional reduction technique. This algorithm learns the underlying manifold of the data and places similar cells together in a low-dimensional space. Gene ontology enrichment analysis for the differentially expressed genes was performed using DAVID Gene Functional Classification Tool ([http://]david.abcc.ncifcrf.gov; version 6.8). Dot plots were generated in R (v4.0.3) using ggplot2(v3.3.3).
Immunohistochemistry. Histological staining for was performed on wild type (WT) mice, F814 mice and all mice that underwent destabilization of the medial meniscus (DMM). Six weeks after surgery, mice were sacrificed and joints were fixed in 10% formalin, decalcified in 10% EDTA and embedded in paraffin. For rat model, 6 weeks after partial medial meniscectomy (PMM), rats were sacrificed and joints were fixed in 10% formalin, decalcified in 10% EDTA and embedded in paraffin. A total of three 8 μm thick sections were made at a 200 μm interval by coronal sectioning. For canine model, 4 and 16 weeks after medial meniscal release (MMR), dogs were sacrificed and joints were fixed in 10% formalin, decalcified in 10% EDTA and embedded in paraffin. No animals were excluded from analysis. A microtome (Leica) was used to cut 5-μm sections for joints. H&E staining was performed to assess morphology. Safranin O/Fast Green staining, immunohistochemistry for proteolytic enzymes and Osteoarthritis Research Society International (OARSI) scoring was performed as described (41, 42). For OARSI scoring, observers performing the analysis were blinded as whether the slides were from treated or control animals. The stained samples were visually observed using LSCM (Zeiss LSM710, Carl Zeiss, Germany).
Canine osteoarthritis model. […]

A short description of data set [1]: 90-day pharmacokinetic study after intra-articular injection in Beagles. The data set is classed as in vivo. To be noted: Beagle. The protocol:
Pharmacokinetic assessment of R805. Pharmacokinetics were conducted in a canine model for over 90 days. Purpose-bred beagles with intact stifles were injected intra-articularly with 500 μL of physiological saline containing 0.25% carboxymethyl cellulose (CMC) and either 1 μg or 100 ng of […] (n=4 each). Synovial fluid and plasma were collected at d0, d3, d7, d14, d21, d31, d60 and d90 and analyzed by LC-MS/MS. Doses of 10 μg, 1 μg and 0.1 μg of R805 were utilized for the main experiment.

The target of another data set is T1, gp130 pY814 (Sus scrofa, UniProt A0A4X1SIN4).
T1 construct: endogenous in cells; host or cells: pig articular chondrocytes (Yucatan minipig)
T1 sequence (A0A4X1SIN4 23-917): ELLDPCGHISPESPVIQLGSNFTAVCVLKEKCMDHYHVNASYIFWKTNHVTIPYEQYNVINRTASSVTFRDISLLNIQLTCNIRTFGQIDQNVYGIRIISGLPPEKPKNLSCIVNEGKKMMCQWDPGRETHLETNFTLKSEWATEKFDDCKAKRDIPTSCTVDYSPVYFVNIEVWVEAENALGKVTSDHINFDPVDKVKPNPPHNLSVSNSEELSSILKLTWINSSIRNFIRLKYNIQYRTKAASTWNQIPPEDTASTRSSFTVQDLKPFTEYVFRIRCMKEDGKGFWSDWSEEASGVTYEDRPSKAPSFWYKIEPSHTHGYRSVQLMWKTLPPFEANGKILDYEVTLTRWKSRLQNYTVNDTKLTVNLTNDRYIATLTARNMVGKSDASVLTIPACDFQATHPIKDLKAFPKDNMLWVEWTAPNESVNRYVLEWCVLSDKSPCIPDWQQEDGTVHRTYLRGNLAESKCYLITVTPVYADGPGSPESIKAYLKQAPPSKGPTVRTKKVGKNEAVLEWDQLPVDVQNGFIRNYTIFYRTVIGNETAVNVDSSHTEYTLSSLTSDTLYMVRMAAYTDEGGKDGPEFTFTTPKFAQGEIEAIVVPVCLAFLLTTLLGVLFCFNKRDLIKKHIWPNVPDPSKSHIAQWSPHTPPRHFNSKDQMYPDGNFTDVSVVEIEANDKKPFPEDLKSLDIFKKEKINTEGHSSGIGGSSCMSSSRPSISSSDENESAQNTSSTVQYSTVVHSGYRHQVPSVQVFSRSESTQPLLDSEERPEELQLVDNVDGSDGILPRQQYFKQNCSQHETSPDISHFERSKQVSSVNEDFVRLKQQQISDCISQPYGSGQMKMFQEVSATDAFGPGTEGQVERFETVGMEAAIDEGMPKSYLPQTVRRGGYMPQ
Nature of the data set: Western blot of gp130 pY814 in OSM-stimulated pig articular chondrocytes. To be noted: with OSM, 4 and 24 hours. The data set is classed as cell-based. The protocol:
(§1) For standard western blot, treated and non-treated cells were lysed in RIPA Lysis and Extraction Buffer (Pierce, Rockford, IL) containing protease inhibitors (Pierce) followed by sonication with a 15-second pulse at a power output of 2 using the VirSonic 100 (SP Industries Company, Warminster, PA). Protein concentrations were determined by BCA protein assay (Pierce). Proteins were resolved with SDS-PAGE utilizing 4-15% Mini-PROTEAN TGX Precast Gels and transferred to Trans-Blot Turbo Transfer Packs with a 0.2-μm pore-size nitrocellulose membrane. The SDS-PAGE running buffer, 4-15% Mini-PROTEAN TGX Precast Gels, Trans-Blot Turbo Transfer Packs with a 0.2-μm pore-size nitrocellulose membrane was purchased from Biorad (Hercules, CA). Nitrocellulose membranes were blocked in 5% nonfat milk in 0.05% (v/v) Tween 20 (PBST) (Corning, Manassas, VA). Membranes were then incubated with primary antibodies p-gp130 Y814 (Evseenko lab, AbClonal), p-AKT (cat #4060, Cell Signaling), p-ERK 1/2 (cat #9106, Cell Signaling), p-Y416-SRC (cat #1246F, Novus Biologicals), p-gp130 (cat #1453R, Bioss USA) and p-NFκBp65 (cat #8242, Cell Signaling), and/or YAP1 (cat #4912, Cell Signaling). Histone H3 (cat #9515, Cell Signaling) was used as loading control. […] Quantification of blots was performed using ImageJ 1.44 followed by Prism9 for analysis.
(In general: Immunoblotting shows a protein as a band on a membrane.)

A further data set relates to STAT3. Nature of the data set: Western blot of STAT3 signaling in osteoarthritic chondrocytes. The conditions noted are these: 4 and 24 hours. The data set is classed as cell-based, human. The method, then: as §1

The structures appear in SMILES notation. Entries after “also recorded” stand apart in the source; their conditions may differ.

With `Cc1ccc(-c2csc(NC(=O)c3ccccn3)n2)cc1` [Peptide R805], the “histological abnormalities of cartilage” value in the data set with canine OA model (0.1 μg dose group (as in saline group)) is “focal partial- and full thickness cartilage erosions”. Besides, the “cortical outline of the medial tibial plateau” value in the data set with canine OA model (10 ug and 1 ug doses) is on record as “almost no change in the cortical outline”. In addition, the “bone mineral density (sclerosis) in medial compartment of the operated stifle, microCT” value with canine OA model (10 and 1 μg groups) is given as “consistent absence of sclerosis”. Moreover, the “scRNA-seq of synoviocytes: joint inflammatory milieu” value in the data set on canine OA model (R805-treated vs control dogs) is “biases the joint environment away from a chronic inflammatory identity following injury; also recorded: promotes an anti-inflammatory, anti-fibrotic milieu in an injured joint”. Moreover, the “knee joint shape change from baseline (serial CT)” value with canine OA model (canine OA model) was “clearly controlled; also recorded: dose-dependent reduction in ectopic bone formation”. For the same compound, the “pain (Colorado Pain Scores)” value in the data set with canine OA model (canine OA model) is “minimal pain”; in the data set on canine OA model (canine OA model, listed as CX-011) it was “profound effect on alleviating pain”. The “subchondral sclerosis / BMD in the contralateral, non-operated knee” value with canine OA model (canine OA model) is “did not develop subchondral sclerosis in the contralateral knee; also recorded: increased with decreasing dose of R805”. The synovial membrane inflammation result in the data set with canine OA model (high and middle dose groups) was “mild intimal hypertrophy with occasional subintimal mononuclear cell infiltration; also recorded: reduced by mid and high doses of R805”; in the data set with canine OA model (low dose (as in saline treated dogs)) it was “profound increase in subintimal vasculature, new connective tissue and cellular infiltrate”. In the data set on canine OA model (high dose group), the lameness scores entry is “minimal pain (FIG. 5E) and lameness”. Also, the “histological (OARSI) scores of joint sections, matrix catabolism” value in the data set on canine OA model was “dramatically reduces the appearance of OA in rat and canine models; also recorded: incremental improvement in the histological scores as the R805 dose increased”; with canine OA model (listed as CX-011), “profound effect on alleviating pain and matrix catabolism”. The “time that IC50 concentrations of R805 were maintained in the joint” value in data set [1] (1 μg intra-articular injection) was 3 weeks. The “detection in systemic circulation” value in data set [1] (intra-articular injection, 90-day study) was “never detected in systemic circulation; also recorded: not detected in systemic circulation”. The “OSM-stimulated activation of gp130 Y814 (protein expression of gp130 pY814)” value at gp130 pY814 is listed as “prevents Y814 activation in response to IL-6 cytokines; also recorded: selectively inhibited OSM-stimulated activation of Y814”; at gp130 pY814 (listed as CX-011), “potent inhibitor of OSM-stimulated activation of gp130 Y814”. Moreover, the “STAT3 signaling in diseased joint cells” value with STAT3 was “minimally affected STAT3 signaling in a diseased joint”.

These data come from US20240182526A1, “COMPOSITIONS AND METHODS FOR MODULTING INFLAMMATORY AND DEGENERATIVE DISORDER” (University of Southern California, priority 2021, published 2024).
